Data set [1] in a line: single-dose lethality test in mice. In kind it is in vivo. The note with it: 2500 mg/kg once; groups of 5 mice. The method, then: In a test in mice (each group consisting of 5 mice), when the compounds (I), for example, 5-(3-ethoxy-4-pentyloxyphenyl)thiazolidine-2,4-dione and 5-(3-ethoxy-4-isopentyloxyphenyl)thiazolidine-2,4-dione were administered at a dose of 2500 mg/kg once, no mouse died.

Data set [2] addresses T1, aldose reductase (Homo sapiens, UniProt P15121).
T1 construct: partially purified aldose reductase preparation from human placenta; from tissue; host or cells: human placenta
As to the kind of experiment: aldose reductase activity, partially purified preparation from human placenta. In kind it is biochemical. The note with it: 10^-6 M. The method, then: The effect of the thiazolidine derivative (I) on aldose reductase activity was assayed after the method described in S. Haymen et al., Journal of Biological Chemistry, Vol. 240, 877 (1965) and Jin H. Kinoshita et al., Metabolism, Vol. 28, Nr. 4, Suppl 1, 462 (1979), etc. The enzyme used in the assay was a partially purified aldose reductase preparation from human placenta. The results for the respective compounds were expressed as % inhibition at the concentration of 10^-6 mole and are shown in Table 2.

Data set [3] relates to rat lens. Briefly: swelling inhibitory effect in rat lens culture assay. In kind it is cell-based. As to conditions: 10^-6 M. The method, then:
The swelling inhibitory effect of each compound in a rat lens culture assay was evaluated by the method described in H. Obazawa et al., Invest. Ophthalmol Vol. 13, Nr. 3, 204 (1974).
The result for each compound was expressed as the % inhibition of swelling into the lens at the concentration of 10^-6 mole and are shown in Table 3.

Broadly, the inhibition is the percentage by which the read-out fell short of the control. A low value points to little suppression.

Regarding `CCOc1cc(C2SC(=O)NC2=O)ccc1OCCC(C)C` (stereo not drawn) [5-(3-ethoxy-4-isopentyloxyphenyl)thiazolidine-2,4-dione], the death of mice result in data set [1] was “no mouse died”.
With `CCCCCOc1ccc(C2SC(=O)NC2=O)cc1OCC` (stereo not drawn) [Example 4, 5-(3-ethoxy-4-pentyloxyphenyl)-thiazolidine-2,4-dione], the inhibition at 1 µM in data set [2] came to 34.6%; in data set [3], 44.6%. Moreover, the death of mice result in data set [1] is listed as “no mouse died”.
Regarding `Cc1ccc(C2SC(=O)NC2=O)cc1C` (stereo not drawn) [Example 5, 5-(3,4-dimethylphenyl)thiazolidine-2,4-dione], 1 µM produced 35.8% inhibition in data set [2].
For `COc1ccc(C2SC(=O)NC2=O)cc1OC` (stereo not drawn) [Example 10 - No. 1], the inhibition at 1 µM in data set [2] stood at 57.1%; in data set [3] it was 30.3%.
The corresponding values for `CCOc1ccc(C2SC(=O)NC2=O)cc1OCC` (stereo not drawn) [Example 10 - No. 2] are 57% and 37%.
In data set [2], `CCOc1cc(C2SC(=O)NC2=O)ccc1O` (stereo not drawn) [Example 10 - No. 3] had an inhibition at 1 µM of 51.6%.
As for `CCOc1cc(C2SC(=O)NC2=O)ccc1OC(C)=O` (stereo not drawn) [Example 10 - No. 4], the values for the inhibition at 1 µM in data set [2] and in data set [3] were 59% and 23.7%, respectively.
Compound `CC(=O)Oc1ccc(C2SC(=O)NC2=O)cc1OC(C)=O` (stereo not drawn) [Example 10 - No. 5] came in with an inhibition at 1 µM in data set [2] of 76.9%.
On the same count and under the same terms, the result for `O=C1NC(=O)C(c2ccc(O)c(O)c2)S1` (stereo not drawn) [Example 10 - No. 6] reads 41.8%.
With `O=C1NC(=O)C(c2ccc3c(c2)OCO3)S1` (stereo not drawn) [Example 10 - No. 7], in data set [2], at 1 µM the inhibition was 47.4%.
Compound `CCCCOc1ccc(C2SC(=O)NC2=O)cc1OCCCC` (stereo not drawn) [Example 10 - No. 8] showed an inhibition at 1 µM in data set [2] of 51.7%.
On the same count and under the same terms, the value for `CCCCOc1ccc(C2SC(=O)NC2=O)cc1OCC` (stereo not drawn) [Example 10 - No. 9] was 55.2%; that for `CCCOc1ccc(C2SC(=O)NC2=O)cc1OCCC` (stereo not drawn) [Example 10 - No. 10] was 53.5%.
For the compound `CCCCCCOc1ccc(C2SC(=O)NC2=O)cc1OCC` (stereo not drawn) [Example 10 - No. 12], the inhibition at 1 µM in data set [2] worked out at 37.7%; in data set [3], 33%.
With `CCOc1cc(C2SC(=O)NC2=O)ccc1OCCC(C)C` (stereo not drawn) [Example 10 - No. 13], the inhibition at 1 µM in data set [2] is 34%; in data set [3], 25.3%.
On to `CCOc1cc(C2SC(=O)NC2=O)ccc1OCC(C)(C)C` (stereo not drawn) [Example 10 - No. 14], for which the figures for the inhibition at 1 µM in data set [2] and in data set [3] were 28% and 57.2%, respectively.
On to `CCOc1cc(C2SC(=O)NC2=O)ccc1OCCCC(C)C` (stereo not drawn) [Example 10 - No. 15], for which the inhibition at 1 µM in data set [2] was 60.6%.
The same measure, in the same setting: the result for `CCCCOc1ccc(C2SC(=O)NC2=O)cc1OC` (stereo not drawn) [Example 10 - No. 16] reads 38.7%; that for `CCCCCOc1ccc(C2SC(=O)NC2=O)cc1OC` (stereo not drawn) [Example 10 - No. 17], 40.6%.
`CCCCCCOc1ccc(C2SC(=O)NC2=O)cc1OC` (stereo not drawn) [Example 10 - No. 18]: testing at 1 µM in data set [2] gave an inhibition of 32.2%.
With `COc1cc(C2SC(=O)NC2=O)ccc1OCCCC(C)C` (stereo not drawn) [Example 10 - No. 19], 1 µM produced 68.1% inhibition in data set [2].
In turn, `CCCCCOc1cc(C2SC(=O)NC2=O)ccc1OC` (stereo not drawn) [Example 10 - No. 20] yielded an inhibition at 1 µM in data set [2] of 30%.

The record behind these values is US4387101A, “Thiazolidine derivatives and their use” (Takeda Chemical Industries, Ltd., priority 1980, dated 1983).
